Laboratory results taken from patent US12496357B2, “Compositions and methods for treating sickle cell disease” (Yale University, priority 2019, dated 2025).

How the values were obtained:
[1] = system: SCD mutation (β-globin gene), bulk mouse bone marrow cells; test: SCD gene correction by ddPCR of gDNA, bulk bone marrow cells treated ex vivo; type: cell-based; conditions: for effect of DNA repair modulator on editing vs NP only: PLA-HPG nanoparticles encapsulating tcPNA 2 or sertcPNA 2; for effect of added factor on gene editing frequencies by ddPCR: bulk bone marrow and HSPCs (lin−) treated with tcPNA 2 nanoparticles, particularly in HSPCs
Experimental: Bulk mouse bone marrow cells were treated with PLGA NPs encapsulating tcPNA 1A, 2A, 3A and correcting donor DNA molecules.
Bulk bone marrow cells were treated with PLGA NPs encapsulating modified (tc PNA 2A) and unmodified versions (tc PNA 2) of PNA sequence. 72 hours after treatment, gDNA was isolated and analyzed for editing frequencies by ddPCR.
(§1) Bulk bone marrow cells were treated with PLGA NPs encapsulating unmodified PNA (tcPNA 2). 72 hours after treatment HSPCs, were isolated from bulk cells via negative and positive selection, and gene editing all three populations was compared.
(§2) Bulk bone marrow and HSPCs (lin^−) were treated with tcPNA 2 nanoparticles and combinations of stem cell factor, erythropoietin, and plerixafor. 72 hours after treatment, gDNA was isolated and analyzed for editing frequencies by ddPCR.
Bulk bone marrow cells were treated with tcPNA 2 encapsulated into poly(lactic-co-glycolic acid) (PLGA), or poly(lactic acid)PLA-HPG.
Nanoparticles made from poly(lactic acid) (PLA) conjugated to hyperbranched polyglycerols (HPG), referred to as PLA-HPG, were synthesized using a double emulsion solvent evaporation protocol. Briefly, 50 mg of PLA-HPG was dissolved in 2.4 mL of ethyl acetate and 0.6 mL of DMSO. PNA and donor DNA were heated to 60° C. for 10 minutes, mixed, and immediately added dropwise to the polymer solution under vortex. This 1st emulsion (water-in-oil) was sonicated 3 times at 38% amplitude for 10 seconds using a probe sonicator. Following sonication, the primary emulsion was added dropwise to 4 mL of diH2O, forming the second emulsion (water-in-oil-in-water), which was subsequently sonicated as above. Nanoparticles were further diluted in 20 mL of diH2O. Residual organic solvent was removed using a rotovap. After solvent removal, nanoparticles were collected via centrifugation in Amicon 100K filter tubes. Following a second washing step, nanoparticles were resuspended in diH2O, frozen, and stored as 100 μl aliquots containing 2 mg of nanoparticles. Where indicated, low molecular weight PLA-HPG (P7H9-2) or high molecular weight PLA-HPG (P7H3-18) was used.
Bulk bone marrow cells were treated with PLGA or PLA-HPG nanoparticles encapsulating unmodified (tcPNA 2) and serine modified (^sertcPNA 2) along with correcting donor DNA molecules.
Experiments were designed to test the effects of DNA repair inhibition on gene editing. Bulk bone marrow cells were treated with PLA-HPG nanoparticles encapsulating tcPNA 2 or ^sertcPNA 2, with or without the addition of small molecule modulators of DNA repair: RS-1, RI-1, RI-2, B0-2, or SCR-7.

[2] = system: SCD mutation (β-globin gene), HSPCs (lin−); test: SCD gene correction by ddPCR of gDNA, HSPCs (lin−) isolated via negative selection; type: cell-based, mouse; conditions: PLGA NPs encapsulating tcPNA 2; 72 hours; comparison of three cell populations
Experimental: as §1, §2

[3] = system: Berk hemizygous mice; test: In vivo gene editing in Berk hemizygous mice treated with nanoparticles; set-up: species or system mouse; conditions: nanoparticles encapsulating tcPNA 2 and donor DNA, intravenous
Source text: Experiments were designed to test the ability of tcPNA 2 to drive gene editing in vivo.
Berk hemizygous mice treated with nanoparticles encapsulating unmodified SCD-tcPNA 2: H-KKK-TTJJTJT-OOO-[…]-KKK-NH2 (SEQ ID NO:5) K indicates lysine; J, pseudoisocytosine (for C) for pH-independent triplex formation. O, 8-amino-2,6,10-trioxaoctanoic acid linkers connecting the Hoogsteen and Watson-Crick domains of the tcPNAs, serine modified bases (bold and underlined) along the Watson-Crick domain and donor DNA: […]

[4] = system: double-stranded DNA target (200 bp); test: PNA incubation with double-stranded DNA target, triplex band; type: binding; conditions: unmodified tcPNA 2 vs modified tcPNA 2A; both temperature conditions
Experimental: Modified (tcPNA 2A) and unmodified (tcPNA 2) PNAs were incubated with a double-stranded DNA target (200 bp) at indicated temperatures.

[5] = system: SCD mutation (β-globin gene), CD117+ HSPCs; test: SCD gene correction by ddPCR of gDNA, CD117+ HSPCs; type: cell-based, mouse
Experimental: Bulk bone marrow cells were treated with PLGA NPs encapsulating tcPNA 1A, 2A, 3A and correcting donor DNA molecules. 72 hours after treatment, HSPCs were isolated by CD117+ selection. gDNA was harvested from these cells and assayed for gene correction via ddPCR.
as §1

[6] = system: Primary mouse bone marrow cells; test: Cytokine expression in primary mouse bone marrow cells after NP treatment; type: cell-based; conditions: PLGA NPs encapsulating tcPNA 1A and correcting donor DNA; 48 hours after treatment
Experimental: The toxicity and safety of PNA/donor DNA delivery using nanoparticles were investigated. Primary mouse bone marrow cells were treated with PLGA nanoparticles (NPs) encapsulating tcPNA 1A and correcting donor DNA. 48 hours after treatment cells were spun, media collected, and assayed for cytokine expression.

[7] = bulk bone marrow cells, 1 uM dose
[8] = bulk bone marrow cells, 10 uM dose
[9] = PLGA NPs encapsulating tcPNA 2, 72 hours, comparison of three cell populations

O=C1C(Cl)=C(N2CCOCC2)C(=O)N1c1ccc(Cl)c(Cl)c1 [RI-1]
effect of DNA repair modulator on editing vs NP only [1, 7]: higher levels of editing
effect of DNA repair modulator on editing vs NP only [1, 8]: reduced levels

SCF: stem cell factor, C-kit ligand
effect of added factor on gene editing frequencies by ddPCR ([1]; 72 hours): increased gene editing frequencies

c1cc(CN2CCCNCCNCCCNCC2)ccc1CN1CCCNCCNCCCNCC1 [Plerixafor, plerixafor]
effect of added factor on gene editing frequencies by ddPCR ([1]; 72 hours): increased gene editing frequencies

lys-lys-lys-TTJJTJT-OOO-TCTCCTTAAACCTGTCTT-lys-lys-lys (SEQ ID NO:5) (TTNNTNTTCTCCTTAAACCTGTCTT; PNA, lysine ends, OOO linker, chemistry not fully specified) [tcPNA 2, tail-clamp PNA oligomer targeting the β-globin gene]
gene editing by ddPCR, bulk population [1, 9]: appreciable editing
level of editing (correction of the SCD mutation) by ddPCR ([1]; bulk bone marrow cells, PLGA NPs, unmodified tcPNA 2 vs mini-PEG modified tcPNA 2A, 72 hours): highest level of editing
gene editing by ddPCR, HSPCs isolated via negative selection [2]: highest levels of editing
gene editing in vivo [3]: can Drive Gene Editing In Vivo
invasion of duplex DNA (triplex band) [4]: superior invasion of duplex DNA
gene editing by ddPCR, CD117+ population [5, 9]: appreciable editing

tcPNA 1A: SEQ ID NO:14 tail-clamp PNA with alternating mini-PEG modified bases along the Watson-Crick domain (NNTNTTNCTTCTCCACAGGAGTCAG; alternating gamma mini-PEG modified PNA units, chemistry not fully specified)
inflammatory cytokine expression [6]: did not produce inflammatory cytokine expression

tcPNA 2A: SEQ ID NO:5 tail-clamp PNA with alternating mini-PEG modified bases along the Watson-Crick domain (TTNNTNTTCTCCTTAAACCTGTCTT; alternating gamma mini-PEG modified PNA units, chemistry not fully specified)
level of gene editing as measured by ddPCR (SCD gene correction) ([1]; bulk mouse bone marrow cells, PLGA NPs encapsulating tcPNA 1A, 2A, 3A and donor DNA, compared with each other): highest level of gene editing
level of gene editing as measured by ddPCR (SCD gene correction) ([5]; CD117+ HSPCs isolated 72 hours after treatment, PLGA NPs encapsulating tcPNA 1A, 2A, 3A and donor DNA, compared with each other): highest level of gene editing

O=c1[nH]c(=S)[nH]c(N=Cc2ccccc2)c1N=Cc1ccccc1 [SCR-7]
effect of DNA repair modulator on editing vs NP only [1, 7]: decreased PNA-mediated gene editing
effect of DNA repair modulator on editing vs NP only [1, 8]: decreased PNA-mediated gene editing

O=c1c2ccccc2nc(/C=C/c2cccnc2)n1Cc1ccccc1 [B0-2]
gene editing frequencies ([1]; bulk bone marrow cells, PLA-HPG nanoparticles encapsulating tcPNA 2 or sertcPNA 2, with or without modulator of DNA repair): ~12%

^sertcPNA 2: tc PNA 2 sequence (SEQ ID NO:5) modified with a hydroxymethyl (serine) group at the γ position along the Watson-Crick domain (TTNNTNTTCTCCTTAAACCTGTCTT; gamma-serine (hydroxymethyl) modified PNA backbone, chemistry not fully specified)
gene editing relative to unmodified tcPNA 2 ([1]; bulk bone marrow cells, PLGA or PLA-HPG nanoparticles with donor DNA, even at lower NP doses): increased gene editing appreciably

O=C(Nc1ccc(Br)cc1)c1ccc(Br)c(S(=O)(=O)NCc2ccccc2)c1 [RS-1]
effect of DNA repair modulator on editing vs NP only [1, 7]: reduced editing frequencies
effect of DNA repair modulator on editing vs NP only [1, 8]: higher levels of editing
